Laboratory results published in PMC4918930, “Investigation of Elemental Mass Spectrometry in Pharmacology for Peptide Quantitation at Femtomolar Levels” (PLoS ONE, 2016).
Residues, ends and D or L forms follow the SMILES beside them.

Biological target: T1, human V1A receptor (Homo sapiens, UniProt P37288)
T1 construct: expressed in transfected cells
Experiment: Saturation experiment with RP-LC-ICP-MS (78Se) read-out on CHO cells stably expressing the human V1A receptor
Conditions: [Se-Se]-AVP 0.05 nM to 80 nM, non-specific with 2000-fold excess of AVP, binding buffer pH 7.4, 4 h at 4°C, 1% TFA dissociation, mean of 2 independent experiments carried out in triplicate, ±SD, read-out: dissociation constant (Kd)
Description: (§1) Assays were performed in triplicate.
as §1

T1 sequence (P37288 whole entry): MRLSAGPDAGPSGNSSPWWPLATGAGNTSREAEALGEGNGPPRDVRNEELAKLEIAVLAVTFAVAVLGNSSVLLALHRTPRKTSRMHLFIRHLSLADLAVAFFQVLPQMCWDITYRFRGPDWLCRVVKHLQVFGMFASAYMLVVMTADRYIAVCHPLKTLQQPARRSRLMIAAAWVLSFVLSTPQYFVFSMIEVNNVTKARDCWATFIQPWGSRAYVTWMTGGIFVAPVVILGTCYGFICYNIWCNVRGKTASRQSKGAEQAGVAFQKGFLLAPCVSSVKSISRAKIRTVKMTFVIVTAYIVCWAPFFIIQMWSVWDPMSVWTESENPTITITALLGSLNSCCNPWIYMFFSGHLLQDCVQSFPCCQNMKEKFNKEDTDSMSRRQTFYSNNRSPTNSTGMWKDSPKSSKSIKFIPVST

Structure (SMILES): N=C(N)NCCC[C@H](NC(=O)[C@@H]1CCCN1C(=O)[C@@H]1C[Se][Se]C[C@H](N)C(=O)N[C@@H](Cc2ccc(O)cc2)C(=O)N[C@@H](Cc2ccccc2)C(=O)N[C@@H](CCC(N)=O)C(=O)N[C@@H](CC(N)=O)C(=O)N1)C(=O)NCC(N)=O [[Se-Se]-AVP] (HELM PEPTIDE1{[N[C@@H](C[Se][*:3])C(=O)[*:2]].Y.F.Q.N.[O=C([C@H](C[Se][*:3])N[*:1])[*:2]].P.R.G.[am]}$PEPTIDE1,PEPTIDE1,1:R3-6:R3$$$V2.0)
- Kd: 0.99 ± 0.14 nM
